≈ marks a conversion by molar mass, not a printed value.
Assays:
Replicating Mtb = test: microbe, parasite or virus in culture; assay type: cell-based, M. tuberculosis H37Rv; conditions: log-phase Mtb; for IC90: Mycobacterium tuberculosis, 72 h, read-out: Replicating Mtb Log MIC IC90 (uM, GFP) (converted)
[1] = system: Non-replicating Mtb Carbon-starved; test: Non-replicating carbon-starved Mtb IC99 by luciferase; assay type: cell-based, M. tuberculosis H37Rv; conditions: Mycobacterium tuberculosis, luciferase readout, 99% killing
M. tuberculosis = test: MIC of control anti-tuberculosis antibiotics; assay type: cell-based; conditions: Mycobacterium tuberculosis, MIC used as reference for 10× MIC

Compound `Cc1cccnc1Nc1nc(-c2ccccn2)cs1` [Compound 1, N-(3-methylpyridin-2-yl)-4-(pyridin-2-yl)thiazol-2-amine] has an IC90 (Replicating Mtb) of 0.5 µM and an MIC [1] of 1 µM (≈ 0.268 µg/mL).

In the case of `Clc1ccc(Nc2nc(-c3ccccn3)cs2)nc1` [Compound 2], the IC90 (Replicating Mtb) is reported as 2 µM and the MIC [1] is reported as 2 µM (≈ 0.578 µg/mL).

Compound `COc1ccc(Nc2nc(-c3ccccn3)cs2)c(OC)c1` [Compound 3] has an IC90 (Replicating Mtb) of 8 µM.

`FC(F)(F)c1ccccc1Nc1nc(-c2ccccn2)cs1` [Compound 4] was tested, and the IC90 (Replicating Mtb) was 62 µM.

Work on `COc1ccc(CCNc2nc(-c3ccccn3)cs2)cc1OC` [Compound 5] yielded an IC90 (Replicating Mtb) of 62 µM and an MIC [1] of 8 µM (≈ 2.73 µg/mL).

Work on `CN(C)c1ccc(Nc2nc(-c3ccccn3)cs2)nc1` [Compound 6] yielded an IC90 (Replicating Mtb) of 125 µM and an MIC [1] of 8 µM (≈ 2.38 µg/mL).

For `Cc1ccccc1Nc1nc(-c2ccccn2)cs1` [Compound 9], the IC90 (Replicating Mtb) was 62 µM and the MIC [1] was 8 µM (≈ 2.14 µg/mL).

With `Cc1cccnc1Nc1nc(-c2cccnc2)cs1` [Compound 10] the IC90 (Replicating Mtb) was 125 µM.

`Cc1cccnc1Nc1nc(-c2ccncc2)cs1` [Compound 11] was tested, and the “Replicating Mtb Log MIC IC90 (uM, GFP)” value (Replicating Mtb) was “None detected”.

Compound `Cc1ccc(-c2csc(Nc3ncccc3C)n2)cc1` [Compound 12] has an IC90 (Replicating Mtb) of 125 µM.

`c1ccc(Nc2nc(-c3ccccn3)cs2)nc1` [Compound 13] was tested, and the IC90 (Replicating Mtb) was 8 µM.

With `Cc1ccnc(Nc2nc(-c3ccccn3)cs2)c1` [Compound 14] the IC90 (Replicating Mtb) was 16 µM.

`C/C(=N\Nc1nc(C)c(C)s1)c1ccc(Br)cc1` [Compound 15] gave an IC90 (Replicating Mtb) of 62 µM and an MIC [1] of 16 µM (≈ 5.19 µg/mL).

Work on `Cc1cccnc1Nc1nc(-c2ccccn2)c(Br)s1` [Compound 17, 5-bromo-N-(3-methylpyridin-2-yl)-4-(pyridin-2-yl)thiazol-2-amine] yielded an IC90 (Replicating Mtb) of less than 1 µM and an MIC [1] of less than 16 µM.

With `CCOC(=O)c1sc(Nc2ncccc2C)nc1-c1ccccn1` [Compound 18, ethyl 2-((3-methylpyridin-2-yl)amino)-4-(pyridin-2-yl)thiazole-5-carboxylate] the IC90 (Replicating Mtb) was 4 µM and the MIC [1] was 8 µM (≈ 2.72 µg/mL).

With `Cc1cccnc1Nc1nc(-c2ccccn2)c(CN2CCOCC2)s1` [Compound 19, N-(3-methylpyridin-2-yl)-5-(morpholinomethyl)-4-(pyridin-2-yl)thiazol-2-amine] the IC90 (Replicating Mtb) was 16 µM and the MIC [1] was 32 µM (≈ 11.8 µg/mL).

`CC(C)(C)OC(=O)COc1cccnc1Nc1nc(-c2ccccn2)cs1` [Compound 20, tert-butyl 2-((2-((4-(pyridin-2-yl)thiazol-2-yl)amino)pyridin-3-yl)oxy)acetate] gave an MIC [1] of 4 µM (≈ 1.54 µg/mL).

In the case of `O=C(O)COc1cccnc1Nc1nc(-c2ccccn2)cs1` [Compound 21, 2-((2-((4-(pyridin-2-yl)thiazol-2-yl)amtno)pyridin-3-yl)oxy)acetic acid], the IC90 (Replicating Mtb) is reported as 125 µM and the MIC [1] is reported as greater than 125 µM.

For `CO[C@H]1/C=C/O[C@@]2(C)Oc3c(C)c(O)c4c(O)c(c(/C=N/N5CCN(C)CC5)c(O)c4c3C2=O)NC(=O)/C(C)=C\C=C\[C@H](C)[C@H](O)[C@@H](C)[C@@H](O)[C@@H](C)[C@H](OC(C)=O)[C@@H]1C` [rifampin], the MIC (M. tuberculosis) was 0.01 µg/mL.

Reference: patent US10221169B2, “Substituted aminothiazoles for the treatment of tuberculosis” (THE BROAD INSTITUTE, INC., priority 2013, dated 2019)
